{
  "source": "patent US20170191031A1",
  "about": "“SYSTEMS AND METHODS FOR STEM CELL DIFFERENTIATION” (University of Oslo, priority 2014, published 2017)",
  "format_in_all_cases": "cell-based, human",
  "key": {"[1]": {"test_system": "hESC line H1", "assay": "Phase I definitive endoderm differentiation, FOXA2/SOX17 immunofluorescence and cell counting", "conditions": "24 hour treatment, Phase I endpoint 48 hours, CHIR99021 3 μM, BIO 1 μM, Wnt3a 50 ng/ml", "text": "(§1) The scale bars represent 100 μm.\nas §1"}, "[2]": {"test_system": "hESC line H1", "assay": "Phase I gene expression by TaqMan RT-qPCR", "procedure": "Phase I of differentiation consists of a 24 hour treatment with RPMI-B27±insulin (RPMI 1640 GlutaMAX+B27 supplement, both from Life Technologies) plus 3-4 μM CHIR99021 (Stemgent), followed by a 24 hour treatment with RPMI-B27 alone. Phase II consists of 5 days of treatment with Knockout DMEM containing 20% Knockout Serum Replacement, 2 mM GlutaMAX, 100 μM 2-mercaptoethanol, 1×MEM non-essential amino acids (Life Technologies) and 1% DMSO (Sigma-Aldrich). Phase III consists of 10 days of treatment with Leibovitz L-15 media containing 8.3% tryptose phosphate broth, 10 μM hydrocortisone 21-hemisuccinate, 50 μg/ml sodium-L-ascorbate, 100 nM dexamethasone (all from Sigma-Aldrich), 0.58% insulin-transferrin-selenium (ITS), 2 mM GlutaMAX (all from Life Technologies), 8.3% foetal bovine serum (Lonza), and 100 nM Dihexa (kind gift from Prof. Joseph Harding, Washington State University). During Phases II and III cells are fed every 48 hours. […]\nRNA was isolated from cells using TRIzol according to manufacturer's instructions and quantified using a spectrophotometer (NanoDrop). cDNA was prepared using the High Capacity Reverse Transcription kit and a thermal cycler (both from Life Technologies). […] Expression levels were quantified relative to ACTB and normalised to undifferentiated pluripotent control samples or definitive endoderm cells as specified. […]"}, "[3]": {"test_system": "hESC lines 207 and 360, hiPSC lines Detroit", "assay": "Phase I definitive endoderm differentiation of other pluripotent lines", "procedure": "Cells were seeded onto Matrigel coated 12 well plates in E8 medium at a 1:3-1:4 split ratio, and allowed to adhere for 24 hours at 37° C./5% CO2. It should be noted the optimal cell density for each line needs to be established. The cells were washed with phosphate buffered saline (PBS) before being treated with differentiation media. The differentiation protocol utilises similar base media to a well-established differentiation protocol (Hay et al., Proc Natl Acad Sci USA 105, 12301-12306 2008), with replacement of all growth factors with small molecules, and minor adjustments in timing. The protocol incorporates several stages (FIG. 1) utilising different small molecules.\n(§2) Phase I of differentiation consists of a 24 hour treatment with RPMI-B27±insulin (RPMI 1640 GlutaMAX+B27 supplement, both from Life Technologies) plus 3-4 μM CHIR99021 (Stemgent), followed by a 24 hour treatment with RPMI-B27 alone. Phase II consists of 5 days of treatment with Knockout DMEM containing 20% Knockout Serum Replacement, 2 mM GlutaMAX, 100 μM 2-mercaptoethanol, 1×MEM non-essential amino acids (Life Technologies) and 1% DMSO (Sigma-Aldrich). Phase III consists of 10 days of treatment with Leibovitz L-15 media containing 8.3% tryptose phosphate broth, 10 μM hydrocortisone 21-hemisuccinate, 50 μg/ml sodium-L-ascorbate, 100 nM dexamethasone (all from Sigma-Aldrich), 0.58% insulin-transferrin-selenium (ITS), 2 mM GlutaMAX (all from Life Technologies), 8.3% foetal bovine serum (Lonza), and 100 nM Dihexa (kind gift from Prof. Joseph Harding, Washington State University). During Phases II and III cells are fed every 48 hours. Cells were photographed during differentiation using a Zeiss phase contrast microscope and ZEN software. The scale bars represent 100 μm.\nCells were washed with PBS before being fixed with a 10 minute treatment of ice cold methanol. Fixed cells were washed in 0.1% PBS-T: PBS containing 0.1% Tween 20 (Sigma-Aldrich). […] Cells were imaged using a Zeiss Observer Fluorescence Microscope and Axiovision imaging software. […]\n(§3) Immuno-stained cells were quantified for expression of stage specific markers by manual counting. For Phase I, FOXA2 and SOX17 were counted separately. For Phase II, cells were scored positively if the nucleus was stained for HNF4A and the cytoplasm was stained for AFP. For Phase III, cells were scored positively if the nucleus was HNF4A positive and the cytoplasm was ALB positive. Phase III cells were also quantified for AFP and A1AT staining and were counted as positive if the cytoplasm was stained. […] A minimum of 10 fields of view were quantified, with a minimum of 250 cells counted per field of view. Percentages are presented as the average of all field quantifications, plus or minus the standard deviation across all fields."}, "[4]": {"test_system": "hESC line H1 and hiPSC line Detroit", "assay": "Definitive endoderm differentiation in 3D alginate scaffold, TaqMan", "conditions": "cells encapsulated in alginate scaffold; Phase I conditions RPMI-B27+Chir", "procedure": "Differentiation of the hESC line H1 and the hiPSC line Detroit was performed in a 3D environment by encapsulating the cells in an alginate scaffold. The cells were cultured using the same conditions as in 2D with the exception that the spheres were cultured for 6 days in human ES media, then transferred to Phase I conditions (RPMI-B27+Chir). All pluripotency marks were maintained as assessed by TaqMan, to the point prior to transition to Phase I. The ability of hPSCs to be directed to definitive endoderm (DE) in 3D was assessed via the DE marks SOX17 and FOXA2. […] Further differentiation through phases II and III is performed as described above."}, "[5]": {"test_system": "hepatic progenitors", "assay": "Phase III hepatocyte maturation, optimisation of concentrations", "conditions": "established in HepatoZYME medium; morphology and function", "procedure": "as §2, with “Phase III consists of 10 days of treatment with Leibovitz L-15 media containing 8.3% tryptose” left out"}, "[6]": {"test_system": "hESC line 207 and hiPSC Detroit RA, RB, RC derived definitive endoderm", "assay": "Phase II hepatic specification of other pluripotent lines", "conditions": "all lines tested; Phase II conditions, 5 days", "procedure": "Phase I of differentiation consists of a 24 hour treatment with RPMI-B27±insulin (RPMI 1640 GlutaMAX+B27 supplement, both from Life Technologies) plus 3-4 μM CHIR99021 (Stemgent), followed by a 24 hour treatment with RPMI-B27 alone. Phase II consists of 5 days of treatment with Knockout DMEM containing 20% Knockout Serum Replacement, 2 mM GlutaMAX, 100 μM 2-mercaptoethanol, 1×MEM non-essential amino acids (Life Technologies) and 1% DMSO (Sigma-Aldrich). […]\nCells were washed with PBS before being fixed with a 10 minute treatment of ice cold methanol. […] Cells were imaged using a Zeiss Observer Fluorescence Microscope and Axiovision imaging software. […]\nas §3"}, "[7]": {"test_system": "CYP1A2", "assay": "Cytochrome P450 induction, P450-Glo CYP1A2", "conditions": "100 μM, 72 hours", "description": "Induction of cytochrome P450 activity was assessed in both small molecule and growth factor derived HLCs. CYP1A2 activity was detected using the P450-Glo CYP1A2 Induction/Inhibition Assay kit (Promega, Cat. no. V8422). […] Assays were performed according to the manufacturer's instructions for non-lytic P450-Glo assays using cultured cells in monolayers. […] Briefly, cells were cultured to day 20 of the differentiation protocol and Rifampicin or Omeprazole was added to L-15 culture medium, which was formulated as described above, but without dexamethasone or hydrocortisone. […] Briefly, for CYP1 A2 the substrate Luciferin-1A2 was diluted to 6 μM in PBS (calcium/magnesium free) containing 3 mM freshly prepared salicylamide (Sigma). The Luciferin substrate was added to each well (1 ml per well of a 6 well plate), and incubated for 60 minutes followed by detection. […] Basal activity was assessed as above with the omission of inducers. In addition, no cell media controls were included. Finally as a negative control, the pluripotent hESC line H1 was assayed for CYP activity as described above. All data was normalised to total protein content in each well. Data is presented as the mean values of 6 independent experiments; error bars represent standard deviation."}, "[8]": {"test_system": "H1 smHLCs", "assay": "Uptake of indocyanine green", "conditions": "1 mg/ml, 1 hour; phase microscopy", "procedure": "In order to assess glycogen storage, differentiated cells were fixed and treated with a periodic acid-Schiff staining kit (Sigma-Aldrich) in accordance with manufacturer's instructions and imaged using a Zeiss phase contrast microscope and ZEN software. The scale bars represent 100 μm. The cellular uptake of indocyanine green was assessed. Briefly, ICG (Sigma-Aldrich) was reconstituted in water and used at a final concentration of 1 mg/ml. Cells were incubated in media supplemented with ICG for 1 hour, the cells were then washed with PBS and imaged using a Zeiss phase contrast microscope and ZEN software."}, "[9]": {"conditions": "all lines (207, Detroit RA, RB, RC), 4 μM in RPMI-B27 minus insulin, 48 hours"}},
  "note": "Non-standard residues stand in square brackets, D forms with d. Residues, ends and D or L forms follow the SMILES beside them. *: point of attachment. Hexanoyl = CCCCCC(=O)*; Ahx = NCCCCCC(=O)O",
  "data": [
    {"compound": "O=C1Nc2cc(Br)ccc2/C1=C1/Nc2ccccc2/C1=N\\O", "note": "[BIO, (2′Z,3′E)-6-Bromoindirubin-3′-oxime]", "values": [
      {"measurement": "Expression of DE proteins FOXA2 and SOX17 by immunofluorescence", "setting": "[1]", "value": "produce FOXA2/SOX17 positive cells"}
    ]},
    {"compound": "Cc1c[nH]c(-c2cnc(NCCNc3ccc(C#N)cn3)nc2-c2ccc(Cl)cc2Cl)n1", "note": "[CHIR99021]", "values": [
      {"measurement": "Expression of DE proteins FOXA2 and SOX17 by immunofluorescence", "setting": "[1]", "value": "equivalent co-expression"},
      {"measurement": "Time to rapid upregulation of NODAL after exposure", "setting": "[2]; 3 μM", "value": "≤ 4", "unit": "h"},
      {"measurement": "SOX7 levels (primitive endoderm marker) during Phase I", "setting": "[2]; 3 μM 24 hour, then 24 hours RPMI-B27", "value": "No upregulation"},
      {"measurement": "Phase I differentiation under H1 conditions", "setting": "[3]; 3 μM, 24 hour treatment, then 24 hours RPMI-B27", "value": "very inefficient"},
      {"measurement": "FOXA2 positive cells at Phase I endpoint", "setting": "[3]; [9]", "value": "81%-84%"},
      {"measurement": "SOX17 positive cells at Phase I endpoint", "setting": "[3]; [9]", "value": "79%-82%"},
      {"measurement": "Optimal concentration for Phase I differentiation", "setting": "[3]; titration 1-10 μM in RPMI-B27±insulin, optimum in RPMI-B27 minus insulin", "value": 4, "unit": "µM"},
      {"measurement": "Induction of SOX17 and FOXA2 in 3D over 2D differentiation", "setting": "[4]", "value": "an order of magnitude induction"}
    ]},
    {"compound": "C[C@@H]1C[C@H]2[C@@H]3CCC4=CC(=O)C=C[C@]4(C)[C@@]3(F)[C@@H](O)C[C@]2(C)[C@@]1(O)C(=O)CO", "note": "[DEX, dexamethasone]", "values": [
      {"measurement": "Optimal concentration for hepatic maturation", "setting": "[5]", "value": 100, "unit": "nM"}
    ]},
    {"compound": "C[S+](C)[O-]", "note": "[DMSO, Dimethylsulfoxide]", "values": [
      {"measurement": "Efficiency based on AFP/HNF4A co-expression", "setting": "[6]", "value": "86%-89%"}
    ]},
    {"compound": "CCCCCC(=O)N[C@@H](Cc1ccc(O)cc1)C(=O)N[C@H](C(=O)NCCCCCC(N)=O)[C@@H](C)CC", "note": "[Dihexa, N-hexanoic-Tyr, Ile-(6) aminohexanoic amide] (Hexanoyl-Tyr-Ile-[Ahx]-NH2)", "values": [
      {"measurement": "Optimal concentration for hepatic maturation", "setting": "[5]", "value": 100, "unit": "nM"}
    ]},
    {"compound": "COc1ccc2[nH]c([S+]([O-])Cc3ncc(C)c(OC)c3C)nc2c1", "note": "(stereo not drawn) [Omeprazole]", "values": [
      {"measurement": "Induction of CYP1A2 activity in smHLCs", "setting": "[7]", "value": "significant induction"}
    ]},
    {"compound": "CC1(C)C(/C=C/C=C/C=C/C=C2\\N(CCCCS(=O)(=O)O)c3ccc4ccccc4c3C2(C)C)=[N+](CCCCS(=O)(=O)[O-])c2ccc3ccccc3c21", "note": "[indocyanine green]", "values": [
      {"measurement": "Cellular uptake in smHLCs", "setting": "[8]", "value": "ICG positive cells were clearly visible"}
    ]},
    {"compound": "Wnt3a", "values": [
      {"measurement": "Expression of DE proteins FOXA2 and SOX17 by immunofluorescence", "setting": "[1]", "value": "sufficient to produce populations of cells that expressed the DE markers FOXA2 and SOX17"}
    ]}
  ]
}
